Results reported in patent EP1129187B1, “NEW FAMILY OF MAMMALIAN POTASSIUM CHANNELS, THEIR CLONING AND THEIR USE, ESPECIALLY FOR THE SCREENING OF DRUGS” (CENTRE NATIONAL DE LA RECHERCHE SCIENTIFIQUE (CNRS), priority 1998, dated 2000).

Experiments:
Format in all cases: cell-based
[1] = test system: human TWIK-1 K+ channel, mutation of the threonine 161 into alanine; assay: Currents of mutated TWIK-1 channel in Xenopus oocytes; conditions: mutant Thr161 to Ala
Procedure: The TWIK-1 coding sequence was amplified using a low-error rate DNA polymerase (Pwo DNA pal, Boehringer) and subcloned in the plasmid pEXO so as to yield pEXO-TWIK-1. Mutations were performed using the whole plasmid pEXO-TWIK-1 with a highly reliable PCR extension kit (Boehringer) and two adjacent primers. One of these introduced a punctiform mutation in the IINIK-1 coding sequence, changing the 161 Thr codon into a codon for alanine. The product of the PCR was linearized by the enzyme BamHI and the cRNA were synthesized using a T7 RNA polymerase (Stratagene). Preparation of the X. larvis oocytes and cRNA injection were carried out in accordance with the literature (Guillemare, E. et al., 1992, Biochemistry. 31, 1246312468,
(§1) Phosphorylation or dephosphorylation of specific amino acid residues is an important mechanism of regulation of the ionic channels (Levitan, I. B., 1994, Annul Rev. Physiol., 56, 193-212).

[2] = molecular target: human TASK1 K+ channel, SEQ ID NO: 4 (Homo sapiens, UniProt O14649); assay: TASK1 currents elicited by voltage pulses to +50 mV, two-electrode voltage clamp in Xenopus oocytes; conditions: 40 nM, activation of protein kinase C
Procedure: For functional studies, TASK1 cRNAs were injected into Xenopus oocytes. This was accomplished by subcloning a 2480 bp SmaI/XhoI fragment from pBS-hT ASK containing 14 bp of 5' UTR, the coding sequence and the entire 3' UTR into the pEXO vector (Lingueglia et al., 1993) to give pEXO-TASK1. Capped-cRNAs were synthesised in vitro from the linearized plasmid by using the T7 RNA polymerase (Stratagene). Xenopus laevis were purchased from CRBM (Montpellier, France). Preparation and cRNA injection of oocytes has been described elsewhere (Guillemare et al., 1992). Oocytes were used for electrophysiological studies 2 to 4 days following injection (20 ng/oocyte). In a 0.3 ml perfusion chamber, a single oocyte was impaled with two standard microelectrodes (1-2.5 Mn resistance) filled with 3 M KCI and maintained under voltage clamp by using a Dagan TEV 200 amplifier, in standard ND96 solution (96 mM NaC1. 2 mM KCI, 1.8 mM CaCI2, 2 mM MgCl2, 5 mM HEPES, pH 7.4 with NaOH). In some experiments, NaCl was substituted with TMA Cl (Tetra Methyl Ammonium Chloride). Stimulation of the preparation, data acquisition, and analysis were performed using pClamp software (Axon instruments, USA). Drugs were applied externally by addition to the superfusate (flow rate: 3 ml/min) or intracellularly injected by using a pressure microinjector (Inject+Matic, Switzedand). All experiments were performed at room temperature (21-22 °C).
Figure 12A presents the I-V relationships of the current in K^+-rich solutions ranging from 2 mM to 98 mM. […] The theoretical I-V relationships in various [K^+]out calculated according to the Goldman-Hodgkin-Katz current equation are shown in Figure 12D. […] The effect of various pharmacological agents on currents elicited by voltage pulses to +50 mV has been studied in TASK1-expressing oocytes.

[3] = molecular target: T1, human TASK-2 K+ channel, SEQ ID NO: 28 (Homo sapiens, UniProt O95279); assay: TASK-2 currents elicited by voltage pulses to +50 mV, whole cell recording in transfected COS cells; conditions: 70 nM, activation of PKC
T1 construct: expressed in transfected cells; host or cells: COS cells transiently transfected with pIREScd8-TASK-2 (DEAE-dextran)
T1 sequence (O95279 1-499): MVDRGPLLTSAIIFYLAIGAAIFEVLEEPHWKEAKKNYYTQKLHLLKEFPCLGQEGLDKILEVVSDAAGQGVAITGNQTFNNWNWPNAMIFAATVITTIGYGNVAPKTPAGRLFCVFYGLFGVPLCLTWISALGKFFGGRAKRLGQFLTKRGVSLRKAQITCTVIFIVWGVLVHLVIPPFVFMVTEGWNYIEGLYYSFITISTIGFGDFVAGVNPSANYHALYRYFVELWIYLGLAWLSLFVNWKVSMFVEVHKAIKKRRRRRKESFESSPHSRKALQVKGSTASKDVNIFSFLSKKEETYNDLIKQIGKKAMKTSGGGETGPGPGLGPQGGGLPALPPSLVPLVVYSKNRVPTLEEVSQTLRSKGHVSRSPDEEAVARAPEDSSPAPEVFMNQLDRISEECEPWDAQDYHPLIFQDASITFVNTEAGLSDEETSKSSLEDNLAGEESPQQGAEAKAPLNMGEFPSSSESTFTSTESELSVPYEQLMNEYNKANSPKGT
Procedure: For patch clamp analyses, a NotI/EcoRI fragment of 3.2 kb was excised from pBS-TASK 2 and subcloned into the pIRES-CD8 vectorto givepIREScdB-TASK-2. ThepIRES-CD8 vector was obtained by replacing the neo^R gene in the original vector pIRESneo (Clontech) by the coding sequence of the T type lymphocyte's surface marker CD8. COS cells were seeded at a density of 20,000 cells per 35 mm dishes 24 h prior to transfection. Cells were then transiently transfected by the classical DEAE-dextian method with 1 µg of prREScdB-TASK-2 plasmid per 35 mm dish. Transiently-transfected cells were visualized 48 h after transfection using the anti-CD8 antibody coated beads method (24). For whole cell recordings, the internal solution contained 150 mM KCI, 3 mM MgCl2, 5 mM EGTA, and 10 mM HEPES at pH 7.2 with KOH, and he external solution 150 mM NaCl, 5 mM KCI, 3 mM MgCl2 1 mM CaCl2, 10 mM HEPES at pH 7.4 with NaOH.
The effects of various pharmacological agents on currents elicited by voltage pulses to +50 mV have been studied in TASK-2-exprcssing. COS cells.

[4] = molecular target: T2, human TWIK-1 K+ channel, SEQ ID NO: 2 (Homo sapiens, UniProt O00180); assay: TWIK-1 K+ currents, two-electrode voltage clamp in Xenopus oocytes injected with TWIK-1 cRNA; conditions: 30 nM, activation of protein kinase C
T2 construct: expressed in transfected cells; host or cells: Xenopus laevis oocytes injected with cRNA transcribed from pEXO-TWIK-1
T2 sequence (O00180 1-336): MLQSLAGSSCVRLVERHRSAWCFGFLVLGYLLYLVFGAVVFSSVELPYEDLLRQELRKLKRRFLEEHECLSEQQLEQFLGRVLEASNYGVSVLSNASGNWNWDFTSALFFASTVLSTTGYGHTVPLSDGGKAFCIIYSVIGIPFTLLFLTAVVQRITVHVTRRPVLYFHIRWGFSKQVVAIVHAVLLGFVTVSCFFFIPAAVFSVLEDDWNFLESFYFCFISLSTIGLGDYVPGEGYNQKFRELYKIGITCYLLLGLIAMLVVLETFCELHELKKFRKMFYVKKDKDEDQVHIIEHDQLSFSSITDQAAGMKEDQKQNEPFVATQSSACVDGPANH
Procedure: For the functional study, the coding sequence of TWIK-1 was inserted between the noncoding sequences 5' and 3' of Xenopus globin in the vector pEXO (Lingueglia, E. et al., 1993, J. Biol. Chem., 269, 13736-13739). A complementary RNA (cRNA) was transcribed of this construction and injected in the oocytes of X laevis. In a 0.3ml perfusion chamber, a single oocyte was impaled on two standard glass microelectrodes (0.5 - 2.0 MW) charged with 3 M KCI and maintained under voltage-clamp with a Dagan TEV200 amplifier. The bath solution contained 98 mM KCl,1.8 raM CaCl2 […] and 5 mM HEPES at pH 7.4 with KOH. Stimulation of the preparation, data acquisition and analyses were carried out with the pClamp program (Axon Instruments) USA3.
Intracellular acidification of the oocytes was produced using two methods: • superfusion with a solution enriched in CO2 which produces acidification by a mechanism involving the bicarbonate transport system (Guillemare, E. et al., 1995, Mol. Pharmacol., 47, 588-594); • treatment with dinitrophenol (DNP), which is a metabolic inhibitor that decouples the H+ gradient in mitochondria and induces internal acidity (Pedersen, P. L. and Carafoli, E., 1997, Trends Biol. Sci., 12, 146-189).
as §1

Sequence of human TASK1 K+ channel, SEQ ID NO: 4 (O14649 whole entry, the tested form may be a part): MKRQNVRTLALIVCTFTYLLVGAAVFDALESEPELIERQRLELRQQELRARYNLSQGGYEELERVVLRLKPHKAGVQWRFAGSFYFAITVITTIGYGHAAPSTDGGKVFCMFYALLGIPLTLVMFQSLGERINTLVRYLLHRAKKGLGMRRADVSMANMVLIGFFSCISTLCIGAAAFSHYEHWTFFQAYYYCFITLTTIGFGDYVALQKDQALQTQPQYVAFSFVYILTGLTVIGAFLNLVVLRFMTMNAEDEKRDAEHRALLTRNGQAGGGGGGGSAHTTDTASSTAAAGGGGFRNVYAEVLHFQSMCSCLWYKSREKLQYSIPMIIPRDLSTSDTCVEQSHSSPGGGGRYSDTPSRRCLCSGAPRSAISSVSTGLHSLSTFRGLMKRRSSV

SMILES: CCCCCCCCCCCCCC(=O)O[C@@H]1[C@@H](C)[C@@]2(O)[C@@H](C=C(CO)C[C@]3(O)C(=O)C(C)=C[C@@H]23)[C@@H]2C(C)(C)[C@]12OC(C)=O [PMA, phorbol-12 myristate acetate]
- activation by PMA [1]: conserves the capacity to be activated
- sensitivity of TASK1 currents [2]: insensitive
- sensitivity of TASK-2 currents [3]: insensitive
- effect on TWIK-1 currents [4]: increases
